Consider 1 compound from patent publication US10271734B2, “Photoacoustic apparatus” (CANON KABUSHIKI KAISHA, priority 2015, dated 2019).

For data set [1] the following is noted: J Clin Invest., 1960 April, 39(4): p. 592-600; cited from earlier work.
A short description of data set [2]: Temporal change in blood ICG concentration after tail vein injection into a nude mouse (FIG. 2). In kind it is in vivo. Particulars: ICG 20 nanomoles.
Procedure: FIG. 2 is a diagram illustrating a temporal change in the concentration of the contrast agent 1012 in the blood when ICG (20 nanomoles) which is the contrast agent 1012 was injected into a tail vein of a nude mouse. The vertical axis of FIG. 2 represents the blood ICG concentration and the horizontal axis represents the time elapsed after the contrast agent 1012 was injected to the nude mouse.

Consider `CC1(C)C(/C=C/C=C/C=C/C=C2\N(CCCCS(=O)(=O)O)c3ccc4ccccc4c3C2(C)C)=[N+](CCCCS(=O)(=O)[O-])c2ccc3ccccc3c21` [ICG, Indocyanine green], for which, in data set [1], the “half-life of ICG in the blood” value was “approximately 3 minutes”. The “time after injection within which the concentration of ICG present in the blood decreases to a half or smaller” value in data set [2] was at most 10 min.
